{"source": "patent US9546401B2", "about": "“Assays and methods for selecting a treatment regimen for a subject with depression” (The General Hospital Corporation, priority 2011, dated 2017)", "system": "MDD patients carrying the indicated biomarkers", "conditions": "for Effect on change in HAMD-28 score / Effect on change in HAMD-17 score: Pooled phases", "experimental": "Folate levels are classified as either low (<=2.5 ng/ml) or normal; and homocysteine levels as either normal or elevated (>=[…]). The presence or absence of at least one […] allele for the MTHFR gene are entered as a dichotomous variable (present or absent). […] Using folate as an example predicator, the presence or absence of a low serum-folate level along with treatment assignment can be entered in a 2×2, factorial ANOVA, using depression improvement scores (baseline minus endpoint HAM-D-17 scores) as the dependant variable. […] Similar analyses (i.e. separate 2×2 ANOVA's) can be performed substituting the presence of low folate levels for the presence of other predictors as described herein. Similarly, the effect of other predictors can be indicated by the interaction term representing the potential modulating influence of those variables.\nThe efficacy effect is determined by measuring the mean change in the HAMD-17 score and HAMD-28 score by the end of Phase I and Phase II, as compared to the baseline.", "key": {"[1]": {"conditions": "BMI < 30 kg/m^2 and HNE-His < median"}, "[2]": {"conditions": "BMI < 30 kg/m^2 and SAM/SAH >= median"}, "[3]": {"conditions": "BMI >= 30 kg/m^2 and HNE-His >= median"}, "[4]": {"conditions": "BMI*treat (interaction of BMI with the treatment)"}, "[5]": {"conditions": "MTHFR 677 CC and BMI < 30 kg/m^2"}, "[6]": {"conditions": "MTHFR 677 CT or TT and BMI >= 30 kg/m^2"}, "[7]": {"conditions": "MTHFR 677 CT or TT and HNE-His >= median"}, "[8]": {"conditions": "MTR 2756 AA and BMI < 30 kg/m^2"}, "[9]": {"conditions": "MTR 2756 AA and HNE-His < median"}, "[10]": {"conditions": "MTR 2756 AA and MTRR 66 AA and SAM/SAH >= median"}, "[11]": {"conditions": "MTR 2756 AA and SAM/SAH >= median"}, "[12]": {"conditions": "MTR 2756 AG or GG and BMI >= 30 kg/m^2"}, "[13]": {"conditions": "MTR 2756 AG or GG and MTRR 66 AG or GG"}, "[14]": {"conditions": "MTR 2756 AG or GG and MTRR 66 AG or GG and HNE-His >= median"}, "[15]": {"conditions": "MTRR 66 AA and SAM/SAH >= median"}, "[16]": {"conditions": "MTRR 66 AG or GG and HNE-His >= median"}, "[17]": {"conditions": "SAM/SAH < median and HNE-His >= median"}, "[18]": {"conditions": "SAM/SAH >= median and HNE-His < median"}}, "note": "Like-named read-outs stand apart in the source and are kept apart here. Marks after values point to notes of the source that are not given here."}
{"compound": "CN1c2c(nc(N)[nH]c2=O)NC[C@@H]1CNc1ccc(C(=O)N[C@@H](CCC(=O)O)C(=O)O)cc1", "note": "[6(S)-5-MTHF, 6(S)-5-methyltetrahydrofolate]", "values": [{"measurement": "Effect on change in HAMD-28 score", "setting": "BMI < 25", "result": "−1.018"}, {"measurement": "Effect on change in HAMD-17 score", "setting": "[1]", "result": 4.738}, {"measurement": "Effect on change in HAMD-28 score", "setting": "[1]", "result": 4.253}, {"measurement": "Effect on change in HAMD-17 score", "setting": "[2]", "result": 2.583}, {"measurement": "Effect on change in HAMD-28 score", "setting": "[2]", "result": 2.906}, {"measurement": "Effect on change in HAMD-17 score", "setting": "BMI >= 30 kg/m^2", "result": "−4.600"}, {"measurement": "Effect on change in HAMD-28 score", "setting": "BMI >= 30 kg/m^2", "result": "−4.660"}, {"measurement": "Effect on change in HAMD-17 score", "setting": "[3]", "result": "−5.420"}, {"measurement": "Effect on change in HAMD-28 score", "setting": "[3]", "result": "−5.996"}, {"measurement": "Effect on change in HAMD-17 score", "setting": "BMI >= 30 kg/m^2 and SAM/SAH < median", "result": "−7.302"}, {"measurement": "Effect on change in HAMD-28 score", "setting": "BMI >= 30 kg/m^2 and SAM/SAH < median = 2.71 (plasma)", "result": "−7.572"}, {"measurement": "Effect on change in HAMD-17 score", "setting": "[4]", "result": "−0.233"}, {"measurement": "Effect on change in HAMD-28 score", "setting": "[4]", "result": "−0.270"}, {"measurement": "Effect on change in HAMD-17 score", "setting": "[5]", "result": 1.356}, {"measurement": "Effect on change in HAMD-28 score", "setting": "[5]", "result": "−0.234"}, {"measurement": "Effect on change in HAMD-17 score", "setting": "MTHFR 677 CC and HNE-His < median", "result": "−1.050"}, {"measurement": "Effect on change in HAMD-28 score", "setting": "MTHFR 677 CC and HNE-His < median = 3.28 (plasma)", "result": "−1.340"}, {"measurement": "Effect on change in HAMD-17 score", "setting": "[6]", "result": "−8.090"}, {"measurement": "Effect on change in HAMD-28 score", "setting": "[6]", "result": "−9.884"}, {"measurement": "Effect on change in HAMD-17 score", "setting": "[7]", "result": "−9.446"}, {"measurement": "Effect on change in HAMD-28 score", "setting": "[7]", "result": "−9.865"}, {"measurement": "Effect on change in HAMD-17 score", "setting": "MTR 2756 AA", "result": "−0.590"}, {"measurement": "Effect on change in HAMD-28 score", "setting": "MTR 2756 AA", "result": "−0.047"}, {"measurement": "Effect on change in HAMD-17 score", "setting": "[8]", "result": 3.196}, {"measurement": "Effect on change in HAMD-28 score", "setting": "[8]", "result": 3.352}, {"measurement": "Effect on change in HAMD-17 score", "setting": "[9]", "result": 1.319}, {"measurement": "Effect on change in HAMD-28 score", "setting": "[9]", "result": 2.085}, {"measurement": "Effect on change in HAMD-17 score", "setting": "MTR 2756 AA and MTRR 66 AA", "result": "−1.373"}, {"measurement": "Effect on change in HAMD-28 score", "setting": "MTR 2756 AA and MTRR 66 AA", "result": "−3.032"}, {"measurement": "Effect on change in HAMD-17 score", "setting": "MTR 2756 AA and MTRR 66 AA and HNE-His < median", "result": 0.466}, {"measurement": "Effect on change in HAMD-28 score", "setting": "MTR 2756 AA and MTRR 66 AA and HNE-His < median = 3.28 (plasma)", "result": "−2.221"}, {"measurement": "Effect on change in HAMD-17 score", "setting": "[10]", "result": "−3.98*"}, {"measurement": "Effect on change in HAMD-28 score", "setting": "[10]", "result": "−3.74*"}, {"measurement": "Effect on change in HAMD-17 score", "setting": "[11]", "result": 0.054}, {"measurement": "Effect on change in HAMD-28 score", "setting": "[11]", "result": "−0.071"}, {"measurement": "Effect on change in HAMD-17 score", "setting": "[12]", "result": "−11.714"}, {"measurement": "Effect on change in HAMD-28 score", "setting": "[12]", "result": "−14.433"}, {"measurement": "Effect on change in HAMD-17 score", "setting": "MTR 2756 AG or GG and HNE-His >= median", "result": "−8.072"}, {"measurement": "Effect on change in HAMD-28 score", "setting": "MTR 2756 AG or GG and HNE-His >= median = 3.28 (plasma)", "result": "−9.508"}, {"measurement": "Effect on change in HAMD-17 score", "setting": "[13]", "result": "−6.976"}, {"measurement": "Effect on change in HAMD-28 score", "setting": "[13]", "result": "−9.348"}, {"measurement": "Effect on change in HAMD-17 score", "setting": "[14]", "result": "−7.942"}, {"measurement": "Effect on change in HAMD-28 score", "setting": "[14]", "result": "−10.241"}, {"measurement": "Effect on change in HAMD-17 score", "setting": "MTR 2756 AG or GG and MTRR 66 AG or GG and SAM/SAH < median", "result": "−7.64*"}, {"measurement": "Effect on change in HAMD-28 score", "setting": "MTR 2756 AG or GG and MTRR 66 AG or GG and SAM/SAH < median = 2.71 (plasma)", "result": "−11.62*"}, {"measurement": "Effect on change in HAMD-17 score", "setting": "MTR 2756 AG or GG and SAM/SAH < median", "result": "−5.583"}, {"measurement": "Effect on change in HAMD-28 score", "setting": "MTR 2756 AG or GG and SAM/SAH < median = 2.71 (plasma)", "result": "−11.683"}, {"measurement": "Effect on change in HAMD-17 score", "setting": "MTR 2756 AG/GG", "result": "−5.677"}, {"measurement": "Effect on change in HAMD-28 score", "setting": "MTR 2756 AG/GG", "result": "−8.243"}, {"measurement": "Effect on change in HAMD-17 score", "setting": "MTRR 66 AA and HNE-His < median", "result": 2.575}, {"measurement": "Effect on change in HAMD-28 score", "setting": "MTRR 66 AA and HNE-His < median = 3.28 (plasma)", "result": "−2.626"}, {"measurement": "Effect on change in HAMD-17 score", "setting": "[15]", "result": "−2.978"}, {"measurement": "Effect on change in HAMD-28 score", "setting": "[15]", "result": "−1.221"}, {"measurement": "Effect on change in HAMD-17 score", "setting": "[16]", "result": "−4.850"}, {"measurement": "Effect on change in HAMD-28 score", "setting": "[16]", "result": "−6.582"}, {"measurement": "Effect on change in HAMD-17 score", "setting": "MTRR 66 AG or GG and SAM/SAH < median", "result": "−5.879"}, {"measurement": "Effect on change in HAMD-28 score", "setting": "MTRR 66 AG or GG and SAM/SAH < median = 2.71 (plasma)", "result": "−6.579"}, {"measurement": "Effect on change in HAMD-17 score", "setting": "[17]", "result": "−9.898"}, {"measurement": "Effect on change in HAMD-28 score", "setting": "[17]", "result": "−9.500"}, {"measurement": "Effect on change in HAMD-17 score", "setting": "[18]", "result": 2.107}, {"measurement": "Effect on change in HAMD-28 score", "setting": "[18]", "result": 2.413}, {"measurement": "Effect on change in HAMD-28 score", "setting": "SAM/SAH*treat, first line under HAMD28", "result": 0.882}, {"measurement": "Effect on change in HAMD-17 score", "setting": "baseHAMD-17*treat (interaction of base HAMD-17 with the treatment)", "result": "−0.025"}, {"measurement": "improvement in HDRS-28 or CGI-S", "setting": "at least one T allele (CT or TT) at MTHFR 677 versus no T allele, + SSRI", "result": "greater degree of improvement"}, {"measurement": "improvement in HAMD-28 or CGI-S", "setting": "obese (BMI at least 30 kg/m^2) versus non-obese patients, + SSRI", "result": "greater degree of improvement"}, {"measurement": "mean change in HAMD-28", "setting": "patients carrying at least one G variant in the MTR gene only", "result": "about −8.2"}, {"measurement": "mean change in HAMD-28", "setting": "patients carrying both MTHFR T and MTR G variants", "result": "about −23.3"}]}
